The test has as its system CD2F1 mice, L1210 leukemia ip, survival T/C. Kind of test: NCI In Vivo Anticancer Drug Screen. Data for tumor model L1210 Leukemia (intraperitoneal) in CD2F1 (CDF1) mice. The following applies: higher = longer survival. The essentials: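 Each value reflects a quotient of treated over vehicle control outcomes in mice with a transplanted tumor.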
[1] abbreviates: endpoint: mean survival time, dose: 100.0 mg/kg/injection, schedule: Q04DX002 (ip), vehicle: saline with Tween-80.
The mark [2] stands for this setting: endpoint: mean survival time, dose: 50.0 mg/kg/injection, schedule: Q04DX003 (ip), vehicle: saline.
Setting [3] is: endpoint: mean survival time, dose: 100.0 mg/kg/injection, schedule: Q04DX003 (ip), vehicle: saline with Tween-80.
The mark [4] stands for this setting: endpoint: mean survival time, dose: 100.0 mg/kg/injection, schedule: Q04DX003 (ip), vehicle: saline.
The mark [5] stands for this setting: endpoint: mean survival time, dose: 200.0 mg/kg/injection, schedule: Q04DX003 (ip), vehicle: saline with Tween-80.
Where [6] appears, read: endpoint: mean survival time, dose: 200.0 mg/kg/injection, schedule: Q04DX003 (ip), vehicle: saline.
The mark [7] stands for this setting: endpoint: mean survival time, dose: 400.0 mg/kg/injection, schedule: Q04DX003 (ip), vehicle: saline with Tween-80.
Where [8] appears, read: endpoint: mean survival time, dose: 400.0 mg/kg/injection, schedule: Q04DX003 (ip), vehicle: saline.
[9] abbreviates: endpoint: mean survival time, dose: 50.0 mg/kg/injection, schedule: Q01DX009 (ip), vehicle: saline with Tween-80.
Setting [10] is: endpoint: mean survival time, dose: 100.0 mg/kg/injection, schedule: Q01DX009 (ip), vehicle: saline with Tween-80.
[11] abbreviates: endpoint: mean survival time, dose: 200.0 mg/kg/injection, schedule: Q01DX009 (ip), vehicle: saline with Tween-80.
Where [12] appears, read: endpoint: mean survival time, dose: 3.12 mg/kg/injection, schedule: Q01DX009 (ip), vehicle: saline with Tween-80.
Setting [13] is: endpoint: mean survival time, dose: 6.25 mg/kg/injection, schedule: Q01DX009 (ip), vehicle: saline with Tween-80.
Where [14] appears, read: endpoint: mean survival time, dose: 12.5 mg/kg/injection, schedule: Q01DX009 (ip), vehicle: saline with Tween-80.
[15] abbreviates: endpoint: mean survival time, dose: 25.0 mg/kg/injection, schedule: Q01DX009 (ip), vehicle: saline with Tween-80.

Drawing on PubChem BioAssay AID256 (DTP/NCI, 2004), this text covers T/C for 16 molecules.

“And” between values parts separate entries of the source, which are not always exact repeats. Equal values may be shown once. Toxic doses and inconclusive results are not listed.

For `CCCCCCCCCCCCCCCCCCN1C(=O)C2C3CCC(O3)C2C1=O` (stereo not drawn), the T/C (endpoint: mean survival time, dose: 25.0 mg/kg/injection, schedule: Q04DX002 (ip), vehicle: saline with Tween-80) is 98 % of control; the T/C (endpoint: mean survival time, dose: 50.0 mg/kg/injection, schedule: Q04DX002 (ip), vehicle: saline with Tween-80) is 98 % of control; the T/C under setting [1] is 94 % of control.

On to `COc1cccc(C=Nc2ccc(C)cc2)c1O.COc1cccc(C=Nc2ccc(C)cc2)c1O.[Co]`, for which the T/C was 91 % of control (endpoint: mean survival time, dose: 25.0 mg/kg/injection, schedule: Q04DX003 (ip), vehicle: saline with Tween-80); 88 % of control (endpoint: mean survival time, dose: 50.0 mg/kg/injection, schedule: Q04DX003 (ip), vehicle: saline with Tween-80); 102 % of control under setting [2]; 94 % of control under setting [3]; 98 % of control under setting [4]; 94 % of control under setting [5]. Moreover, the T/C runs as follows: under setting [6], 96 % of control; under setting [7], 99 % of control; under setting [8], 98 % of control.

For `O=C(/C=C/c1ccccc1)N1CC2CCC(CC2)C1`, the T/C was 94 % of control under setting [9], 94 % of control under setting [10] and 91 % of control under setting [11].

For the molecule `COC(=O)C(F)C(Br)C(=O)OC` (stereo not drawn), the T/C was 108 % of control under setting [12]; 97 % of control under setting [13]; 107 % of control under setting [14]; 105 % of control under setting [15]; 108 % of control under setting [9].

Take `CCc1ccc(NN=Nc2ccccc2C#N)cc1`: the T/C under setting [3] was 95 % of control, the T/C under setting [5] is 95 % of control and the T/C under setting [7] is 98 % of control.

With `C=CCCCCC/C=C/CCCCCC`, the T/C is, setting by setting: (endpoint: mean survival time, dose: 100.0 mg/kg/injection, schedule: Q01DX001 (ip), vehicle: saline) 96 % of control; under setting [4], 108 % of control; (endpoint: mean survival time, dose: 200.0 mg/kg/injection, schedule: Q01DX001 (ip), vehicle: saline) 98 % of control; under setting [6], 103 % of control; (endpoint: mean survival time, dose: 400.0 mg/kg/injection, schedule: Q01DX001 (ip), vehicle: saline) 104 % of control; under setting [8], 106 % of control.

Consider `CC(=O)Nc1ncc2ccccc2c1-c1ccc(NC(=O)CCCl)cc1`, for which the T/C reads like this: (endpoint: mean survival time, dose: 25.0 mg/kg/injection, schedule: Q04DX003 (ip), vehicle: DMSO) 101 % of control; (endpoint: mean survival time, dose: 50.0 mg/kg/injection, schedule: Q04DX003 (ip), vehicle: DMSO) 96 % of control; (endpoint: mean survival time, dose: 100.0 mg/kg/injection, schedule: Q04DX003 (ip), vehicle: DMSO) 94 % of control; (endpoint: mean survival time, dose: 200.0 mg/kg/injection, schedule: Q04DX003 (ip), vehicle: DMSO) 91 % of control; (endpoint: mean survival time, dose: 400.0 mg/kg/injection, schedule: Q04DX003 (ip), vehicle: DMSO) 94 % of control.

On to `COc1cc2ccc3c(c2cc1OC)CCc1cn[nH]c1-3`, for which the T/C under setting [1] is 103 % of control; the T/C (endpoint: mean survival time, dose: 200.0 mg/kg/injection, schedule: Q04DX002 (ip), vehicle: saline with Tween-80) is 107 % of control; the T/C (endpoint: mean survival time, dose: 400.0 mg/kg/injection, schedule: Q04DX002 (ip), vehicle: saline with Tween-80) is 103 % of control.

With `CNC(=O)/C(=C\c1ccccc1)NC(C)=O`, the T/C was 103 % of control under setting [10]; 98 % of control under setting [11]; 98 % of control (endpoint: mean survival time, dose: 400.0 mg/kg/injection, schedule: Q01DX009 (ip), vehicle: saline with Tween-80).

With `NCCS[As](=O)(O)SCCN`, the T/C was 97 % of control under setting [14]; 101 % of control (endpoint: mean survival time, dose: 12.5 mg/kg/injection, schedule: Q04DX003 (ip), vehicle: saline); 103 % of control under setting [15]; 98 % of control (endpoint: mean survival time, dose: 25.0 mg/kg/injection, schedule: Q04DX003 (ip), vehicle: saline); 94 % of control under setting [9]; 101 % of control under setting [2].

As for `CN(C)CCNc1ccc(CO)c2sc3ccc(O)cc3c(=O)c12`, the T/C runs as follows: (endpoint: median survival time, dose: 25.0 mg/kg/injection, schedule: Q01DX005 (ip), vehicle: saline with Tween-80) 107 % of control; (endpoint: median survival time, dose: 72.0 mg/kg/injection, schedule: Q01DX005 (ip), vehicle: saline with Tween-80) 155 % of control; (endpoint: median survival time, dose: 100.0 mg/kg/injection, schedule: Q01DX005 (ip), vehicle: saline with Tween-80) 212 % of control; (endpoint: median survival time, dose: 120.0 mg/kg/injection, schedule: Q01DX005 (ip), vehicle: saline with Tween-80) 183 % of control; (endpoint: median survival time, dose: 333.33 mg/kg/injection, schedule: Q01DX005 (ip), vehicle: saline with Tween-80) 112 % of control; (endpoint: median survival time, dose: 400.0 mg/kg/injection, schedule: Q01DX005 (ip), vehicle: saline with Tween-80) 113 % of control and 97 % of control. Moreover, the T/C (endpoint: median survival time, dose: 555.55 mg/kg/injection, schedule: Q01DX005 (ip), vehicle: saline with Tween-80) was 111 % of control.

As to `CCCn1c2cc([N+](=O)[O-])ccc2c(=O)c2ccc3ccccc3c21`, the T/C reads like this: under setting [9], 97 % of control; under setting [10], 104 % of control; under setting [11], 101 % of control.

As to `CCCC(=O)C(CC)C(O)(C(F)(F)F)C(F)(F)F` (stereo not drawn), the T/C is 95 % of control (endpoint: mean survival time, dose: 100.0 mg/kg/injection, schedule: Q04DX003 (ip), vehicle: Klucel (hydroxypropylcellulose) (HPC)); 108 % of control (endpoint: mean survival time, dose: 200.0 mg/kg/injection, schedule: Q04DX003 (ip), vehicle: Klucel (hydroxypropylcellulose) (HPC)); 86 % of control (endpoint: mean survival time, dose: 400.0 mg/kg/injection, schedule: Q04DX003 (ip), vehicle: Klucel (hydroxypropylcellulose) (HPC)).

`Nc1nc(N)c2c(Cl)c(CNc3ccc(Cl)c(Cl)c3)ccc2n1`: the T/C is 110 % of control under setting [12]; 98 % of control (endpoint: mean survival time, dose: 3.13 mg/kg/injection, schedule: Q01DX009 (ip), vehicle: saline with Tween-80); 114 % of control and 115 % of control under setting [13]; 153 % of control under setting [15]; 156 % of control and 188 % of control under setting [9]; 111 % of control under setting [10]. The T/C runs as follows: (endpoint: median survival time, dose: 6.25 mg/kg/injection, schedule: Q01DX009 (ip), vehicle: saline with Tween-80) 102 % of control and 110 % of control; (endpoint: median survival time, dose: 25.0 mg/kg/injection, schedule: Q01DX009 (ip), vehicle: saline with Tween-80) 150 % of control and 153 % of control; (endpoint: median survival time, dose: 50.0 mg/kg/injection, schedule: Q01DX005 (ip), vehicle: saline with Tween-80) 159 % of control; (endpoint: median survival time, dose: 50.0 mg/kg/injection, schedule: Q01DX009 (ip), vehicle: saline with Tween-80) 175 % of control and 198 % of control; (endpoint: median survival time, dose: 83.33 mg/kg/injection, schedule: Q01DX005 (ip), vehicle: saline with Tween-80) 202 % of control; (endpoint: median survival time, dose: 83.63 mg/kg/injection, schedule: Q01DX005 (ip), vehicle: saline with Tween-80) 230 % of control. Moreover, the T/C (endpoint: median survival time, dose: 138.89 mg/kg/injection, schedule: Q01DX005 (ip), vehicle: saline with Tween-80) is 179 % of control; the T/C (endpoint: median survival time, dose: 139.39 mg/kg/injection, schedule: Q01DX005 (ip), vehicle: saline with Tween-80) was 151 % of control; the T/C (endpoint: median survival time, dose: 232.31 mg/kg/injection, schedule: Q01DX005 (ip), vehicle: saline with Tween-80) is 117 % of control.

In the case of `[Cl][Pt+2][Cl].[NH-]C1CCCC1[NH-]` (stereo not drawn), the T/C runs as follows: (endpoint: median survival time, dose: 10.0 mg/kg/injection, schedule: Q04DX003 (ip), vehicle: Klucel (hydroxypropylcellulose) (HPC)) 166 % of control and 173 % of control; (endpoint: median survival time, dose: 20.0 mg/kg/injection, schedule: Q04DX003 (ip), vehicle: Klucel (hydroxypropylcellulose) (HPC)) 196 % of control and 333 % of control.

Take `COC(=O)/C(C#N)=C(\C)CC(C)C`: the T/C reads like this: (endpoint: mean survival time, dose: 75.0 mg/kg/injection, schedule: Q01DX001 (ip), vehicle: saline) 100 % of control; (endpoint: mean survival time, dose: 150.0 mg/kg/injection, schedule: Q01DX001 (ip), vehicle: saline) 94 % of control.
